# According to patent US12714698B2, “Compositions and methods for treating or preventing dermal disorders” (Drexel University, priority 2015, dated 2026):
# Entries after “also recorded” stand apart in the source; their conditions may differ.
# Assays:
# Lung fibroblasts = test: Senescence markers in lung fibroblasts exposed to NRTIs; assay type: cell-based, human
# Protocol: (§1) Cell culture experiments utilizing NRTIs were of the following design. Cultures of either human lung or cardiac fibroblasts were cultivated according to standard culture protocols for these cells (Cristofalo, et al., Journal of Tissue Culture Methods 1980, 6:117-121). Parallel sets of cultures were maintained in normal growth media or in normal growth media with the addition of 1 nM rapamycin. Cultures were maintained with 1 nM rapamycin (Enzo Biologicals) for two weeks before exposure to NRTIs. Cell cultures were exposed to NRTIs at indicated concentrations in individual experiments (generally 10-20 μg/ml) for 7 days, with a change of media and fresh NRTIs at day 4. Mitochondrial measurements, bioanalyzer measurements, immunoblotting for protein expression and phosphorylation status, and assays for senescence were performed at the end of this 7-day period.
# Cell culture reagents were from Cellgro, unless indicated. WI-38 fetal-lung primary human fibroblasts or human cardiac fibroblasts were grown in MEM supplemented with 10% fetal bovine serum, 1% L-glutamine, MEM vitamins, and MEM non-essential amino acids. Cells were maintained in a 37° C. in 5% CO2 incubator. For treatment studies, cells were treated with 1 nM rapamycin (Enzo Biologicals) for two weeks before treatment with NRTIs. […]
# [1] = tested on: ribosomal S6 protein and MDM2; test: Immunoblot of ribosomal S6 protein and MDM2 phosphorylation (mTORC1/p70S6K signaling); assay type: cell-based, human; conditions: agent added to NRTI-exposed cardiac fibroblasts
# Protocol: as §1
# Cell culture reagents were from Cellgro, unless indicated. WI-38 fetal-lung primary human fibroblasts or human cardiac fibroblasts were grown in MEM supplemented with 10% fetal bovine serum, 1% L-glutamine, MEM vitamins, and MEM non-essential amino acids. Cells were maintained in a 37° C. in 5% CO2 incubator. For treatment studies, cells were treated with 1 nM rapamycin (Enzo Biologicals) for two weeks before treatment with NRTIs. Cells were maintained by trypsinization and reseeding at a cell density of 1×10^4/cm^2 every 7 to 10 days. Emtricitabine (FTC) and tenofovir disoproxil fumarate (TDF) were kindly provided by the NIH AIDS Research & Reference Reagent program. During the 7-day exposure to the NRTIs, the pharmacologic inhibitors PD98059 (10 μM, Santa Cruz Biotechnologies), BI-D1870, GW5074, and SB203580 (10 μM, Enzo Biologicals) were added to the culture medium either during the final 48 hours or for the final 2 hours depending upon the experiment. During the 7-day exposure to NRTIs, Trolox (500 μM) and N-acetylcysteine (100 μM, Acros Organics) were added every other day. Mito-Q (20 nM) and TPP (20 nM) were kindly provided by Dr. Brett Kaufmann at the University of Pennsylvania School of Veterinary Medicine. Vector and mt-catalase adenoviruses (MOI's 25, 50, and 75) were purchased from Gene Transfer Vector Core from the University of Iowa.
# Cell protein extracts were prepared by extracting with radioimmunoprecipitation assay (RIPA) buffer containing a protease inhibitor cocktail (Sigma-Aldrich) and phosphatase inhibitors, NaF and sodium orthovanadate. Protein concentration was quantified using a bicinchoninic acid (BCA) assay (Pierce Biotechnology). Western blot analysis was performed using 15 to 30 μg of protein extracts that were run on SDS-PAGE and transferred onto nitrocellulose (Biorad) membranes. Blots were incubated with antibodies specific for: beta-actin (Sigma-Aldrich), TFAm, parkin, p16, phospho(S82)HSP27, HSP27 (Santa Cruz Biotechnologies), p53, 21, catalase, MDM2 (EMD Millipore), VDAC, phospho(S235/236)-ribosomal protein S6, ribosomal protein S6, phospho(S166)-MDM2, phospho(5473)-AKT, AKT, beta-tubulin (Cell Signaling), p62 (Enzo Biologicals), IL-6 (NeoBiolab), lamin B1, PINK1, and Mitoprofile Total OXPHOS Cocktail (complex I-NDUFB8 subunit, CII-SDHB subunit, […]2 subunit, and CIV-mitochondrial COX1 subunit) (Abcam) according to manufacturers' instructions. Western blots were visualized using IRDye 680 and 800 LI-COR secondary antibodies on a LI-COR Odyssey using LI-COR Odyssey software version 3.0 (LI-COR Biosciences). For co-immunoprecipitation, cell protein extracts were prepared in HNTG buffer containing a protease inhibitor cocktail and quantified using BCA assay. Protein extracts at the concentration of 0.5 mg were pre-cleared with protein A/G beads (Santa Cruz Biologicals) for 30 minutes. After centrifugation at 2,000 rpm for 5 minutes at 4° C., the supernatant was incubated with the primary antibody at manufacturer's recommended concentration overnight at 4° C. An IgG antibody (Cell Signaling) was used as a non-specific control.
# human fibroblasts = test: Long-term culture of human fibroblasts with or without rapamycin (lifespan, organization, p21 and IL-6 expression); assay type: cell-based
# Protocol: FIG. 13 is a graph illustrating the finding that rapamycin treatment provides lifespan extension in human fibroblasts. Human fibroblast cells were growth in culture medium with or without rapamycin (1 nM). Cultures were split every 7 days and reseeded at identical cell number/cm^2 each week. The lifespan of normal human fibroblasts is counted by the number of times that the cells double.
# FIG. 14 illustrates the finding that rapamycin preserves cell organization during aging of human fibroblasts. […] The ability to organize is a critical element of normal fibroblast function and contributes to tissue integrity in normal tissue. The disorganization which occurs with age contributes to functional decline.
# FIG. 17 is a bar graph illustrating the finding that rapamycin prevents the expression of genes that cause senescence. The p21 gene makes a protein that is critical for senescence of human fibroblasts.
# FIG. 18 is a bar graph illustrating the finding that rapamycin prevents the expression of genes related to inflammation. The IL-6 gene makes a protein that activates the immune system to recruit immune cells into an area of tissue damage.
# as §1
# human lung fibroblasts = test: Mitochondrial respiration, Seahorse Bioanalyzer, lung fibroblasts; assay type: cell-based; conditions: rapamycin-treated lung fibroblasts
# Protocol: Cell culture reagents were from Cellgro, unless indicated. […]
# Mitochondrial function was measured using the XF cell mito stress test kit on a Seahorse XF24 Bioanalyzer (Seahorse Bioscience). […] Following acquisition, results were normalized based upon 10^6 cells counted using a Guava EasyCyte Mini (Millipore), where applicable. […] Mitochondrial respiration was calculated based upon oxygen consumption rate measurements in triplicates from cells seeded in at least quadruplicates. […]
# [2] = tested on: human cardiac fibroblasts; test: Senescence-associated beta-galactosidase detection; assay type: cell-based; conditions: rapamycin treated cultures (1 nM)
# Protocol: as §1
# Assessment of SA-β-gal activity was performed by plating cells following respective treatments at low density (0.5×10^4/cm^2) to prevent false positive staining known to occur in high density cultures. […] Following incubation, cells were washed three times with PBS and at least 500 cells were counted for each sample in triplicates. Positive cells (blue cells) were expressed as a percentage of total cells.
# [3] = cells grown in the presence of rapamycin
smiles,measurement,setting,value
CO[C@H]1C[C@@H]2CC[C@@H](C)[C@@](O)(O2)C(=O)C(=O)N2CCCC[C@H]2C(=O)O[C@H]([C@H](C)C[C@@H]2CC[C@@H](O)[C@H](OC)C2)CC(=O)[C@H](C)/C=C(\C)[C@@H](O)[C@@H](OC)C(=O)[C@H](C)C[C@H](C)/C=C/C=C/C=C/1C [rapamycin],effect of rapamycin treatment on NRTI-induced senescence markers,Lung fibroblasts,protection
same,MDM2 phosphorylation in cells exposed to NRTIs,[1],no increase
same,ribosomal S6 phosphorylation in cells exposed to NRTIs,[1],complete lack
same,IL-6 expression as cells age,human fibroblasts; [3],do not produce IL-6
same,p21 expression as cells age,human fibroblasts; [3],do not produce p21
same,cell organization during aging,human fibroblasts; low doses of rapamycin,maintained an orderly growth pattern
same,replicative lifespan (number of times that the cells double),human fibroblasts; rapamycin 1 nM in culture medium,extend replicative lifespan; also recorded: well beyond the normal lifespan
same,"basal and maximal respiration, proton leak following exposure to NRTIs",human lung fibroblasts,no increase
same,SA-β-gal following exposure to NRTIs,[2],no increase
